Assay results reported in patent US20220089575A1, “FARNESOID X RECEPTOR AGONISTS AND USES THEREOF” (Metacrine, Inc., priority 2017, published 2022).

biological target: T1, hFXR (Homo sapiens, UniProt Q96RI1); assay: In Vitro FXR Assay (TK): TK-ECRE-luc reporter in transfected CV-1 cells; format: cell-based; conditions: 18 hrs, luminescence, maximum efficacy of <25% of the Fexarmine control classified as '+'
T1 construct: expressed in transfected cells; host or cells: CV-1 cells
T1 sequence (Q96RI1 1-486): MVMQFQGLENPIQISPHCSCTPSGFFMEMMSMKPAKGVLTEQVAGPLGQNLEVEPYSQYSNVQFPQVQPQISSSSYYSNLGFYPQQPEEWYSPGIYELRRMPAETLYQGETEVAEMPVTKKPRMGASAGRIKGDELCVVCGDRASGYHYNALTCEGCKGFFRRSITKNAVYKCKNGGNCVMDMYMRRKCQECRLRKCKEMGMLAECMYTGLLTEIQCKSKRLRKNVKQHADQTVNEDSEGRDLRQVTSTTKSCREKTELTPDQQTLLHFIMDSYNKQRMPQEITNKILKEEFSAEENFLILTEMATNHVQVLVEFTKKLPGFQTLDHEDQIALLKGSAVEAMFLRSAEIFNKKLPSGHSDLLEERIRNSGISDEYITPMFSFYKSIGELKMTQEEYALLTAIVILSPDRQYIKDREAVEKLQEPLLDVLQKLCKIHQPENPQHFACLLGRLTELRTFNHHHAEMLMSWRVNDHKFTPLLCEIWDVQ
T1 sequence (P19793 1-462 partner): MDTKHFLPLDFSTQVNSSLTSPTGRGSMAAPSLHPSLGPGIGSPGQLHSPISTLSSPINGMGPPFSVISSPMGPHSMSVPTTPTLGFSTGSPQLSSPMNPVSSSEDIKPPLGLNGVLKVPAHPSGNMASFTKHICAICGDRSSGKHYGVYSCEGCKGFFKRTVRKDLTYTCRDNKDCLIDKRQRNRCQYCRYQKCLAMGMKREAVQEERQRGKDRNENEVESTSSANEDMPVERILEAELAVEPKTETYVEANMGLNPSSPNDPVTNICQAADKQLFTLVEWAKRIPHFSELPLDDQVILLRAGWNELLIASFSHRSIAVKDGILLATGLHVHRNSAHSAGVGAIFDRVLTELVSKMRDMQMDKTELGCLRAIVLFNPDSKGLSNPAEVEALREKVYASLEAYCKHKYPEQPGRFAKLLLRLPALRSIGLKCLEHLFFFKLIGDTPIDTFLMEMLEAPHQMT
Procedure, shortened: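 CV-1 cells transiently co-transfected with hFXR, hRXR, TK-ECRE-luc and pCMX-YFP plasmids in charcoal-stripped serum medium. Serially diluted compounds added, cells incubated 18 h at 37° C, then lysed and luminescence read.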

Compound | EC50 [nM]
COc1ccc([C@H]2CC[C@H](CN(c3cccc(-c4cnn(C(C)C)c4)c3)C(=O)[C@H]3CC[C@H](OC(=O)NCCCO)CC3)CC2)nc1C [Compound 6.16, trans-4-((3-(1-Isopropyl-1H-pyrazol-4-yl)phenyl)((trans-4-(5-methoxy-6-methylpyridin-2-yl)cyclohexyl)methyl)carbamoyl)cyclohexyl (3-hydroxypropyl)carbamate] | ≤ 250
COc1ccc([C@H]2CC[C@H](CN(c3cc(-c4cnn(C(C)C)c4)ccn3)C(=O)[C@H]3CC[C@H](OC(=O)NCCO)CC3)CC2)cc1C [Compound 6.17, trans-4-((4-(1-Isopropyl-1H-pyrazol-4-yl)pyridin-2-yl)((trans-4-(4-methoxy-3-methylphenyl)cyclohexyl)methyl)carbamoyl)cyclohexyl (2-hydroxyethyl)carbamate] | ≤ 250
COc1ccc([C@H]2CC[C@H](CN(c3cccc(-c4cnn(C5CC5)c4)c3)C(=O)[C@H]3CC[C@H](OC(=O)NC4CN(C)C4)CC3)CC2)cc1C [Compound 6.18, trans-4-((3-(1-Cyclopropyl-1H-pyrazol-4-yl)phenyl)((trans-4-(4-methoxy-3-methylphenyl)cyclohexyl)methyl)carbamoyl)cyclohexyl (1-methylazetidin-3-yl)carbamate] | ≤ 250
COc1ccc([C@H]2CC[C@H](CN(c3cccc(-c4cnn(C5CC5)c4)c3)C(=O)[C@H]3CC[C@H](OC(=O)NCCO)CC3)CC2)cc1C#N [Compound 6.19, trans-4-(((trans-4-(3-Cyano-4-methoxyphenyl)cyclohexyl)methyl)(3-(1-cyclopropyl-1H-pyrazol-4-yl)phenyl)carbamoyl)cyclohexyl (2-hydroxyethyl)carbamate] | ≤ 250
COc1ccc([C@H]2CC[C@H](CN(c3cccc(-c4cnn(C(C)C)c4)c3)C(=O)[C@H]3CC[C@H](OC(=O)NCCO)CC3)CC2)cc1C#N [Compound 6.20, trans-4-(((trans-4-(3-Cyano-4-methoxyphenyl)cyclohexyl)methyl)(3-(1-isopropyl-1H-pyrazol-4-yl)phenyl)carbamoyl)cyclohexyl (2-hydroxyethyl)carbamate] | ≤ 250
COc1ccc([C@H]2CC[C@H](CN(c3cc(-c4cnn(C5CC5)c4)ccn3)C(=O)[C@H]3CC[C@H](OC(=O)NCCO)CC3)CC2)cc1C#N [Compound 6.21, trans-4-(((trans-4-(3-Cyano-4-methoxyphenyl)cyclohexyl)methyl)(4-(1-cyclopropyl-1H-pyrazol-4-yl)pyridin-2-yl)carbamoyl)cyclohexyl (2-hydroxyethyl)carbamate] | ≤ 250
COc1ccc([C@H]2CC[C@H](CN(c3cc(-c4cnn(C(C)C)c4)ccn3)C(=O)[C@H]3CC[C@H](OC(=O)NCCO)CC3)CC2)cc1C#N [Compound 6.22, trans-4-(((trans-4-(3-Cyano-4-methoxyphenyl)cyclohexyl)methyl)(4-(1-isopropyl-1H-pyrazol-4-yl)pyridin-2-yl)carbamoyl)cyclohexyl (2-hydroxyethyl)carbamate] | ≤ 250
COc1ncc([C@H]2CC[C@H](CN(c3cccc(-c4cnn(C5CC5)c4)c3)C(=O)[C@H]3CC[C@H](OC(=O)NCCO)CC3)CC2)cc1Cl [Compound 6.23, trans-4-(((trans-4-(5-Chloro-6-methoxypyridin-3-yl)cyclohexyl)methyl) (3-(1-cyclopropyl-1H-pyrazol-4-yl)phenyl)carbamoyl)cyclohexyl (2-hydroxyethyl)carbamate] | ≤ 250
COc1ccc([C@H]2CC[C@H](CN(c3cccc(-c4cnn(C5CC5)c4)c3)C(=O)[C@H]3CC[C@H](OC(=O)NC4COC4)CC3)CC2)cc1C [Compound 6.24, trans-4-((3-(1-Cyclopropyl-1H-pyrazol-4-yl)phenyl)((trans-4-(4-methoxy-3-methylphenyl)cyclohexyl)methyl)carbamoyl)cyclohexyl oxetan-3-ylcarbamate] | ≤ 250
COc1ccc([C@H]2CC[C@H](CN(c3cccc(-c4cnn(C5CC5)c4)c3)C(=O)[C@H]3CC[C@H](OC(=O)N4CCN(C)CC4)CC3)CC2)cc1C [Compound 6.25, trans-4-((3-(1-Cyclopropyl-1H-pyrazol-4-yl)phenyl)((trans-4-(4-methoxy-3-methylphenyl)cyclohexyl)methyl)carbamoyl)cyclohexyl 4-methylpiperazine-1-carboxylate] | ≤ 250
COCCN(C)C(=O)O[C@H]1CC[C@H](C(=O)N(C[C@H]2CC[C@H](c3ccc(OC)c(C)c3)CC2)c2cccc(-c3cnn(C4CC4)c3)c2)CC1 [Compound 6.26, trans-4-((3-(1-Cyclopropyl-1H-pyrazol-4-yl)phenyl)((trans-4-(4-methoxy-3-methylphenyl)cyclohexyl)methyl)carbamoyl)cyclohexyl (2-methoxyethyl) (methyl)carbamate] | ≤ 250
COc1ccc([C@H]2CC[C@H](CN(c3cccc(-c4cnn(C5CC5)c4)c3)C(=O)[C@H]3CC[C@H](OC(=O)N4CCSCC4)CC3)CC2)cc1C [Compound 6.27, trans-4-((3-(1-Cyclopropyl-1H-pyrazol-4-yl)phenyl)((trans-4-(4-methoxy-3-methylphenyl)cyclohexyl)methyl)carbamoyl)cyclohexyl thiomorpholine-4-carboxylate] | ≤ 250

More lines, now with the values ahead:

EC50 [nM] | Compound
≤ 250 | COc1ccc([C@H]2CC[C@H](CN(c3cccc(-c4cnn(C5CC5)c4)c3)C(=O)[C@H]3CC[C@H](OC(=O)NC(CO)CO)CC3)CC2)cc1C [Compound 6.11, trans-4-((3-(1-Cyclopropyl-1H-pyrazol-4-yl)phenyl)((trans-4-(4-methoxy-3-methylphenyl)cyclohexyl)methyl)carbamoyl)cyclohexyl (1,3-dihydroxypropan-2-yl)carbamate]
≤ 250 | COc1ccc([C@H]2CC[C@H](CN(c3cccc(-c4cnn(C5CC5)c4)c3)C(=O)[C@H]3CC[C@H](OC(=O)NC[C@H](O)CO)CC3)CC2)cc1C [Compound 6.12, trans-4-((3-(1-Cyclopropyl-1H-pyrazol-4-yl)phenyl)((trans-4-(4-methoxy-3-methylphenyl)cyclohexyl)methyl)carbamoyl)cyclohexyl ((S)-2,3-dihydroxypropyl)carbamate]
≤ 250 | COc1ccc([C@H]2CC[C@H](CN(c3cccc(-c4cnn(C5CC5)c4)c3)C(=O)[C@H]3CC[C@H](OC(=O)NC[C@@H](O)CO)CC3)CC2)cc1C [Compound 6.13, trans-4-((3-(1-Cyclopropyl-1H-pyrazol-4-yl)phenyl)((trans-4-(4-methoxy-3-methylphenyl)cyclohexyl)methyl)carbamoyl)cyclohexyl ((R)-2,3-dihydroxypropyl)carbamate]
≤ 250 | COc1ccc([C@H]2CC[C@H](CN(c3cccc(-c4cnn(C(C)C)c4)c3)C(=O)[C@H]3CC[C@H](OC(=O)NCCCO)CC3)CC2)cc1C [Compound 6.14, trans-4-((3-(1-Isopropyl-1H-pyrazol-4-yl)phenyl)((trans-4-(4-methoxy-3-methylphenyl)cyclohexyl)methyl)carbamoyl)cyclohexyl (3-hydroxypropyl)carbamate]
≤ 250 | COc1ccc([C@H]2CC[C@H](CN(c3cccc(-c4cnn(C(C)C)c4)c3)C(=O)[C@H]3CC[C@H](OC(=O)NCCO)CC3)CC2)nc1C [Compound 6.15, trans-4-((3-(1-Isopropyl-1H-pyrazol-4-yl)phenyl)((trans-4-(5-methoxy-6-methylpyridin-2-yl)cyclohexyl)methyl)carbamoyl)cyclohexyl (2-hydroxyethyl)carbamate]
